In brackets after ≈: the same amount, converted by molar mass. Read-outs that look alike come from different tables or passages of the source.
Experiments:
[1] = tested on: L. donovani (strain MHOM/ET/67/L82) amastigotes; assay: In vitro assay for Leishmania donovani axenic amastigotes (resazurin); assay type: cell-based; details: axenic amastigotes, 72 h, means of two determinations ± deviation, read-out: IC50 Leishmania donovani
Method: Amastigotes of L. donovani (strain MHOM/ET/67/L82) were grown in axenic culture at 37 °C in SM medium at pH 5.4 supplemented with 10% heat-inactivated FBS under an atmosphere of 5% CO2. Culture medium (100 μL) with 10^5 amastigotes from axenic culture with or without a serial drug dilution was seeded in 96 well microtiter plates. Serial drug was prepared covering a range of dilutions from 90 to 0.123 μg/mL. After 72 h of incubation, the plates were inspected under an inverted microscope to assure growth of the controls and sterile conditions. Subsequently, 10 μL resazurin solution (12.5 mg resazurin dissolved in 100 mL double-distilled water) was added to each well and the plates were incubated for another 2 h. The plates were then read with a Spectramax Gemini XS microplate fluorometer (Molecular Devices Cooperation, Sunnyvale, CA, USA) using an excitation wavelength of 536 nm and an emission wavelength of 588 nm. Data were analyzed using the software Softmax Pro (Molecular Devices Cooperation, Sunnyvale, CA, USA). A decrease of fluorescence (=inhibition) was expressed as percentage of the fluorescence of control cultures and plotted against the drug concentrations. From the sigmoidal inhibition curves, the IC50 values were calculated. Miltefosine was used as a reference drug.

[2] = tested on: Trypanosoma brucei rhodesiense STIB 900; assay: In vitro assay for Trypanosoma brucei rhodesiense (resazurin); assay type: cell-based
Method: Trypanosoma brucei rhodesiense STIB 900 strain, isolated in 1982 from a human patient in Tanzania and, after several mouse passages, cloned and adapted to axenic culture conditions, was used in this assay. Minimum essential medium (50 μL) supplemented with 25 mM HEPES, 1 g/L additional glucose, 1% MEM non-essential amino acids (100×), 0.2 mM 2-mercaptoethanol, 1 mM Na-pyruvate, and 15% heat inactivated horse serum was added to each well of a 96 well microtiter plate. Serial drug dilutions of seven 3-fold dilution steps covering a range from 90 to 0.123 μg/mL were prepared, and then 4 × 10^4 blood stream forms of T. b. rhodesiense STIB 900 in 50 μL were added to each well and the plate was incubated at 37 °C under a 5% CO2 atmosphere for 72 h. Resazurin solution (resazurin, 12.5 mg in 100 mL double-distilled water) (10 μL) was then added to each well and incubated for a further 2–4 h. At the end of the assay, the plates were read with a Spectramax Gemini XS microplate fluorometer (Molecular Devices Cooperation, Sunnyvale, CA, USA) using an excitation wavelength of 536 nm and an emission wavelength of 588 nm. Data were analyzed using the microplate reader software Softmax Pro (Molecular Devices Cooperation, Sunnyvale, CA, USA). Melarsoprol was used as standard drug.

[3] = tested on: T. cruzi Tulahuen strain C2C4; assay: In vitro assay for Trypanosoma cruzi in L-6 cells (β-galactosidase/CPRG); assay type: cell-based; details: Trypanosoma cruzi, L6; Tulahuen C2C4 in L-6 cells, 96 h; highest concentration tested 90 μg/mL; means of two determinations ± deviation
Method: Rat skeletal myoblasts (L-6 cells) were seeded in 96 well microtiter plates (2000 cells/well) in 100 μL RPMI 1640 medium with 10% FBS and 2 mM L-glutamine for 24 h. After that, the medium was removed and replaced by 100 μL per well containing 5000 trypomastigote forms of T. cruzi Tulahuen strain C2C4, containing the β-galactosidase (Lac Z) gene. The medium was removed from the wells after 48 h, and replaced with 100 μL fresh medium with or without a serial drug dilution of seven 3-fold dilution steps covering a range from 90 to 0.123 μg/mL. After 96 h of incubation, the plates were inspected under an inverted microscope to assure growth of the controls and sterility, after which the substrate CPRG/Nonidet ([…]) was added to all wells. A color reaction developed within 2–6 h and could be read photometrically at 540 nm. Data were transferred into the graphic program Softmax Pro (Molecular Devices Cooperation, Sunnyvale, CA, USA) and the IC50 values were calculated from the sigmoidal dose response curves. Benznidazole was the reference drug.

[4] = tested on: P. falciparum K1 strain; assay: In vitro assay for Plasmodium falciparum ([3H]-hypoxanthine incorporation); assay type: cell-based; details: K1 strain (chloroquine- and pyrimethamine-resistant), erythrocytic stages, means of two determinations ± deviation, read-out: IC50 Plasmodium falciparum
Method: Activity against the erythrocytic stages of P. falciparum was determined using an in vitro modified [^3H]-hypoxanthine incorporation assay, using the chloroquine- and pyrimethamine-resistant K1 strain [68]. Compounds were dissolved in DMSO at 10 mg/mL and further diluted in medium before added to parasite cultures incubated in RPMI 1640 medium without hypoxanthine, supplemented with HEPES (5.94 g/l), NaHCO3 (2.1 g/L), neomycin (100 U/mL), AlbumaxR (5 g/L), and washed human red cells A+ at 2.5% haematocrit (0.3% parasitaemia). Serial drug dilutions of seven 3-fold dilution steps covering a range from 90 to 0.123 μg/mL were prepared. The 96 well plates were incubated in a humidified atmosphere at 37 °C; 4% CO2, 3% O2, 93% N2. After 48 h 50 μL of ^3H-hypoxanthine (=0.5 μCi) was added to each well of the plate. The plates were incubated for a further 24 h under the same conditions. The plates were then harvested with a Betaplate™ cell harvester (Wallac, Zurich, Switzerland), and the red blood cells transferred onto a glass fiber filter then washed with distilled water. The dried filters were inserted into a plastic foil with 10 mL of scintillation fluid, and counted in a Betaplate™ liquid scintillation counter (Wallac, Zurich, Switzerland). […] IC50 values were calculated from the sigmoidal inhibition curves using Microsoft Excel. Chloroquine was used as positive control drug.

[5] = In vitro assay for cytotoxicity on mammalian cells (resazurin); assay type: cell-based, rat
Method: Assays were performed in 96 well microtiter plates (4 × 10^4 L6 cells/well), each well containing 100 μL of RPMI 1640 medium supplemented with 1% L-glutamine (200 mM) and 10% FBS. L6 cells are a primary cell line derived from rat skeletal myoblasts. Serial drug dilutions of seven 3-fold dilution steps covering a range from 90 to 0.123 μg/mL were prepared. After 72 h of incubation, the plates were inspected under an inverted microscope to assure growth of the controls and sterile conditions. Resazurin solution (10 μL) (12.5 mg resazurin in 100 mL double-distilled water) was then added to each well and the plates incubated for another 2 h. The plates were then read with a Spectramax Gemini XS microplate fluorometer (Molecular Devices Cooperation, Sunnyvale, CA, USA) using an excitation wavelength of 536 nm and an emission wavelength of 588 nm. Data were analyzed using the microplate reader software Softmax Pro (Molecular Devices Cooperation, Sunnyvale, CA, USA). From the sigmoidal inhibition curves, the IC50 values were calculated. Podophyllotoxin was the positive control.

[6] = tested on: T. b. brucei; design: method as in PMID 29778466; details: blood stream trypomastigotes cultures; AnTart 1 strain, wild type; cited from earlier work
[7] = tested on: T. cruzi epimastigotes; design: method as in doi:10.1080/10412905.2013.820669; details: cited from earlier work
[8] = tested on: T. cruzi amastigotes; design: method as in doi:10.1080/10412905.2013.820669; details: cited from earlier work
[9] = Trypanosoma brucei, 72 h, STIB 900 blood stream forms, 72 h; means of two independent determinations ± deviation from the mean; read-out: IC50 Trypanosoma brucei rhodesiense
[10] = L6 cells (rat skeletal myoblasts), rat skeletal myoblasts, 72 h, means of two determinations ± deviation, read-out: IC50 Cytotoxicity L6 cells
[11] = rat skeletal myoblasts, 72 h, means of two determinations ± deviation, read-out: IC50 Cytotoxicity L6 cells

| Compound | IC50 [1] [µg/mL] | IC50 [2, 9] [µg/mL] | IC50 [3] [µg/mL] | IC50 [4] [µg/mL] | IC50 at 72 h [5, 10] [µg/mL] | IC50 T. b. brucei [6] [µg/mL] | IC50 T. cruzi epimastigotes [7] [µg/mL] | IC50 T. cruzi amastigotes [8] [µg/mL] | IC50 at 72 h ([5]; rat) [µg/mL] | IC50 [5, 11] [µg/mL] | IC50 ([2]; Trypanosoma brucei; STIB 900 blood stream forms, 72 h; means of two independent determinations ± deviation from the mean; read-out: IC50 Trypanosoma brucei rhodesiense) [µg/mL] | IC50 at 72 h [5, 11] [µg/mL] |
| --- | --- | --- | --- | --- | --- | --- | --- | --- | --- | --- | --- | --- |
| CCCCCCCCCCCCCCCCOP(=O)([O-])OCC[N+](C)(C)C [miltefosine, reference compound] | 0.2 (≈ 0.491 µM) |  |  |  |  |  |  |  |  |  |  |  |
| CC1=CCC2CC1C2(C)C (stereo not drawn) [α-Pinene] | 81.9 ± 9 (≈ 601 µM) | 0.42 ± 0.24 (≈ 3.08 µM) | > 90 | 10.7 ± 1.2 (≈ 78.5 µM) | 87.8 ± 3 (≈ 644 µM) | 2.9 (≈ 21.3 µM) | 2.74 (≈ 20.1 µM) | 1.92 (≈ 14.1 µM) |  |  |  |  |
| C=C[C@](C)(O)CCC=C(C)C [L-Linalool] | 86.3 ± 2.8 (≈ 559 µM) | 3.6 ± 2.5 (≈ 23.3 µM) | > 90 | > 20 |  |  |  |  | > 90 |  |  |  |
| C=CC(=C)CCC=C(C)C [Myrcene] | 48.2 ± 12.7 (≈ 354 µM) | 22 ± 14.8 (≈ 161 µM) | > 90 | > 20 | > 90 |  |  |  |  |  |  |  |
| CC1=CC[C@@H](C(C)(C)O)CC1 [α-Terpineol] | 75.9 ± 4.7 (≈ 492 µM) | 0.56 ± 0.4 (≈ 3.63 µM) | 61 ± 2.1 (≈ 395 µM) | > 20 |  |  |  |  |  | 32.3 ± 0.1 (≈ 209 µM) |  |  |
| CC1=CCC(C(C)C)=CC1 [γ-Terpinene] | > 90 |  | > 90 | > 20 |  |  |  |  |  | > 90 | 32.9 ± 26 (≈ 241 µM) |  |
| COc1cc([C@@H]2c3cc4c(cc3[C@H](O)[C@H]3COC(=O)[C@H]23)OCO4)cc(OC)c1OC [phodophyllotoxin, reference compound] |  |  |  |  |  |  |  |  |  |  |  | 0.004 (≈ 0.00965 µM) |
| C=C1CC/C=C(\C)CC[C@@H]2[C@@H]1CC2(C)C [β-Caryophyllene] | 52.4 ± 17.4 (≈ 256 µM) | 28.9 ± 11.8 (≈ 141 µM) | 50.1 ± 12.5 (≈ 245 µM) | 12.8 (≈ 62.6 µM) | 62.2 ± 7 (≈ 304 µM) |  |  |  |  |  |  |  |
| Cc1ccc(C(C)C)cc1 [p-Cymene] | > 90 | 45 ± 27 (≈ 335 µM) | > 90 | > 20 | > 90 |  |  |  |  |  |  |  |
